According to patent publication US20220090096A1 (priority 2019, published 2022):

How the values were obtained:
Clostridium spp. = details: cited from earlier work
[1] = system: Pfdx-rbG-botR-T1-Pntnh-catP construct integrated in the pyrE locus; type: cell-based, C. botulinum ATCC 19397 ΔClA

Cc1c2c(c(O)c3c(O)cccc13)C(=O)[C@]1(O)C(=O)C(C(N)=O)=C(O)[C@@H](N(C)C)[C@@H]1C2 [anhydrotetracycline]
effect on cell growth (Clostridium spp.): significant inhibitory effects on cell growth

Cn1c(=O)c2[nH]cnc2n(C)c1=O [theophylline]
CAT expression upon induction relative to absence of theophylline [1]: approximately 7 fold
